Laboratory results published in patent US10344017B2, “Pyrrolcarboxamide derivatives for the inhibition of ERK5” (CANCER RESEARCH TECHNOLOGY LIMITED, priority 2014, dated 2019).
Like-named read-outs stand apart in the source and are kept apart here.

Legend:
[1] = test system: ERK5 autophosphorylation in HeLa cells; experiment: EGF-stimulated HeLa cell assay (ERK5 autophosphorylation, Western blot); assay type: cell-based; settings: Homo sapiens, average where more than one data point
Description: EGF-Stimulated HeLa Cell Assay
HeLa cells were serum starved overnight followed by treatment with ERK5 inhibitors for 1 hr. Cells were then stimulated with 100 ng/ml EGF for 10 or 15 min. The cells were harvested and lysed at 4° C. for 5-10 min in Laemmli buffer containing Halt protease and […] (Pierce). The lysates were boiled for 10 min at 100° C. Twenty microliters sample was run on 6% or 7.5% Tris-glycine gels and transferred to nitrocellulose. […] The IC50 was calculated from densitometry of top bands.

[2] = target: T1, ERK5 (Homo sapiens, UniProt Q13164); experiment: ERK5 IMAP assay (fluorescence polarisation); assay type: biochemical
T1 construct: made in house

[3] = test system: ERK5 (HA-ERK5 wt activated by EGFP-MEK5D, MEF2D-Gal4/Gal4-Luc reporter) in HEK293 cells; experiment: Dual-luciferase reporter assay (ERK5 reporter), reverse-transfected HEK293 cells; settings: Homo sapiens, HEK293, read-out: ERK 5 Reporter Assay
Description: Trypsinizing of Adherent Cell Colonies
Cells were regularly passaged in order to maintain optimum colony sizes on plates. In order to do this, and to harvest cells for use in the dual-luciferase reporter assay, adherent cells were lifted from tissue culture dishes. Cell media was removed via aspiration, and the cell monolayer was washed with phosphate buffered saline (PBS) solution (10 mL), which was then aspirated.
Reverse Transfection of HEK293 Cells
Preparation of EGFP Control (C3) Working Solution (for 1×96 Well Plate)
Preparation of HEK293 Cells for Reverse Transfection
Trypsinized HEK293 cells were re-suspended in 19 mL of fresh cell media and counted using haemocytometry. Cells were then diluted with fresh cell media to achieve a final cell concentration of 2×10^5 cells/mL. 1237.5 μL and 7425 μL of this cell media was added to the C3 and 5D working solutions respectively. 100 μL of the transfected cells were then aliquoted into the appropriate wells in a 96-well opaque sided tissue culture plate, and incubated at 37° C. for 6 h.
Addition of Compounds to HEK293 Cells
4 compounds was assayed per 96-well plate. For each compound, 1 mL of growth media was added to eight 1.5 mL Eppendorf® tubes. 6 μL of DMSO was added to two tubes for C3 and blank 5D wells, and 6 μL of the relevant compound stock solution was added to the 6 remaining tubes. […] Solutions of drug in media were thoroughly mixed, and 100 μL of the relevant compound was transferred (in triplicate) to the 96-well plate containing transfected HEK293 cells using an electronic multichannel pipette with variable tip spacing. Sealed plates were incubated at 37° C. for 24 h. Final compound concentrations were as follows; 30 μM, 10 μM, 3 μM, 1 μM and 0.3 μM.
15 mL of 1× passive lysis buffer (PLB) was prepared using 5×PLB (Dual-Luciferase Reporter Assay System, Promega® E1960), diluting with H2O. Assay plates prepared were removed from the incubator and the growth media removed by aspiration.

[4] = test system: HA-ERK5-ΔP493 (MEK5D-activated, MEF2D-Gal4/Gal4-Luc reporter) in HEK293T cells; experiment: Truncated dual-luciferase reporter assay, HEK293T forward transfection; assay type: cell-based; settings: Homo sapiens, HEK-293T, average where more than one data point, read-out: Truncated ERK 5 Reporter Assay
Description: (§1) Truncated Dual-Luciferase Reporter Assay
(§2) HEK293T and HeLa Forward Transfection
Constitutively-active, EGFP-tagged MEK5 (EGFP-MEK5D; 0.5 μg/μl), an EGFP-tagged construct containing no MEK5D (EGFP-C3; 0.5 μg/μl), and HA-tagged ERK5 with C-terminal truncation (HA-ERK5-ΔP493; 0.51 μg/μl) were diluted separately in sterile distilled water. Plasmid DNA and Lipofectamine 2000 (Invitrogen) were separately diluted in Opti-MEM growth media (reduced serum medium, Invitrogen), and incubated at room temperature for 5 min. Plasmid DNA (Tube A) and Lipofectamine 2000 (Tube B) were then combined and incubated for 20 min at room temperature to complex. Cells were then transfected by addition of 16 μl of the respective transfection mixture: 3 wells with EGFP-C3-containing (control) and 21 wells with MEK5D-containing transfection mixture (final volume, 100 μl). Cells were subsequently incubated for 4 h at 37° prior to addition of potential ERK5-inhibitory compounds.
Addition of Compounds to ERK5-Transfected HEK293T or HeLa Cells
Potential ERK5-inhibitory compounds were prepared as a 2× solution by addition of 2 μl compound (or DMSO as control) to 1 ml standard culture medium. Compounds were tested in triplicate at a concentration range of 0.003 μM, 0.01 μM, 0.03 μM, 0.1 μM, 0.3 μM and 1 μM (or 0.03 μM, 0.1 μM, 0.3 μM, 1 μM, 3 μM and 10 μM for BIX02189) by addition of 100 μl 2× solution to 100 μl transfected cells (final DMSO, 0.1% v/v). Cells were incubated for 24 h at 37° C.
(§3) Cell Lysis and Luciferase Quantification
(§4) After 24 h incubation in the absence (control) or presence of potential inhibitor, the culture medium was aspirated and cells lysed in 20 μl 1× passive lysis buffer (Dual-Luciferase Reporter Assay System, Promega) for a minimum of 15 min with agitation. Lysates were further processed immediately or stored at −80° C. Cellular inhibition of ERK5 was quantified using the Dual-Luciferase Reporter Assay System (Promega). Luciferase assay buffer/Luciferase assay substrate and Stop and Glo assay buffer/Stop and Glo substrate were prepared according to the manufacturer's instructions. Luciferase reagent (50 μl/well) was added immediately before luminescence detection using a FLUOstar Omega plate reader (BMG Labtech). Stop and Glo reagent (50 μl/well) was subsequently added, and the Renilla luciferase signal (transfection efficiency control) quantified.
The ERK5-specific signalling activity was calculated by subtraction of the EGFP-C3 luciferase signal from the EGFP-MEK5D-induced luminescence. Luminescence in the absence of potential ERK5 inhibitor (DMSO control) was taken as 100% ERK5 activity. […] Unless stated otherwise, data are mean±standard deviation of three independent experiments.

[5] = test system: HA-ERK5-ΔP493 (MEK5D-activated, MEF2D-Gal4/Gal4-Luc reporter) in HeLa cells; experiment: Truncated dual-luciferase reporter assay, HeLa forward transfection; assay type: cell-based; settings: Homo sapiens, value with spread
Description: as §1, §2
HEK293T or HeLa cells were seeded in 96-well luminescence (white) plates (1.68×10^4/well in 84 μl standard culture medium) and incubated overnight at 37° C. in a humidified atmosphere of 5% CO2 in air. Plasmid DNA mastermix containing MEF2D-Gal4 (0.25 μg/μl), Gal4-Luc (1.25 μg/μl) and Renilla luciferase (0.1 μg/μl) was prepared in sterile distilled water. Constitutively-active, EGFP-tagged MEK5 (EGFP-MEK5D; 0.5 μg/μl), an EGFP-tagged construct containing no MEK5D (EGFP-C3; 0.5 μg/μl), and HA-tagged ERK5 with C-terminal truncation (HA-ERK5-ΔP493; 0.51 μg/μl) were diluted separately in sterile distilled water. Plasmid DNA and Lipofectamine 2000 (Invitrogen) were separately diluted in Opti-MEM growth media (reduced serum medium, Invitrogen), and incubated at room temperature for 5 min. Plasmid DNA (Tube A) and Lipofectamine 2000 (Tube B) were then combined and incubated for 20 min at room temperature to complex. […]
as §3
as §4, with “Lysates were further processed immediately or stored at −80° C.” left out, “Luciferase assay buffer/Luciferase assay substrate and Stop and Glo assay buffer/Stop and Glo substrate were prepared according to the manufacturer's instructions.” left out
The ERK5-specific signalling activity was calculated by subtraction of the EGFP-C3 luciferase signal from the EGFP-MEK5D-induced luminescence. Luminescence in the absence of potential ERK5 inhibitor (DMSO control) was taken as 100% ERK5 activity. […]

[6] = average (e.g. geometric mean) where more than one data point, read-out: ERK5 IC50
[7] = value ± spread, second part of table, read-out: ERK5 IMAP IC50

T1 sequence (Q13164 whole entry): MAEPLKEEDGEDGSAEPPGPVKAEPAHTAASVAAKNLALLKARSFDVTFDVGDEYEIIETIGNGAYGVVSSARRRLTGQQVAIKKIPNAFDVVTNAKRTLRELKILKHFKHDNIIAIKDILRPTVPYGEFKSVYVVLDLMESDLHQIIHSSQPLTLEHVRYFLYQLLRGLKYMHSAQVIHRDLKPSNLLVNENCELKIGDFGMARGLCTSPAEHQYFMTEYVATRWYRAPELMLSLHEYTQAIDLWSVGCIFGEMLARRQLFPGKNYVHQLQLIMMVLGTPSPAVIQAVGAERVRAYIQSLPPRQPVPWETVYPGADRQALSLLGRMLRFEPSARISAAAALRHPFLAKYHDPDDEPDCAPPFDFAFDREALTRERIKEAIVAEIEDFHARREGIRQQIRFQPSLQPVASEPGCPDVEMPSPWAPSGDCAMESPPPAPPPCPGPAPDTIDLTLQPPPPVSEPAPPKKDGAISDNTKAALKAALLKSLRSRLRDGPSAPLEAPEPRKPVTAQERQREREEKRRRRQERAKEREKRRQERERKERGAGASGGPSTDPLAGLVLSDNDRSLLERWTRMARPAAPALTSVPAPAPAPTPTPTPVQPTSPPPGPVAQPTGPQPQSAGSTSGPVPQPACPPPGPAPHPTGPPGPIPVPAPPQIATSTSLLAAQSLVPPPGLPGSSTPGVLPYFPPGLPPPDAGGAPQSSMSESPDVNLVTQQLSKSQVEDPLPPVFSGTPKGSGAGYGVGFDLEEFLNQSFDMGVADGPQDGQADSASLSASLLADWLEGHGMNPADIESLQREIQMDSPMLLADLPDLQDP

Row | Compound | IC50 [1] [nM] | IC50 [2, 6] [nM] | IC50 [5] [nM] | IC50 [2, 7] [nM] | IC50 [3] [nM] | IC50 [4] [nM]
1 | O=C(Nc1cnc(NC2CCN(C3CC3)CC2)nc1)c1cc(C(=O)c2c(Cl)ccc(Cl)c2F)c[nH]1 [Example 25, N-(2-((1-Cyclopropylpiperidin-4-yl)amino)pyrimidin-5-yl)-4-(3,6-dichloro-2-fluorobenzoyl)-1H-pyrrole-2-carboxamide] | 5100 | 49.7 | – | – | – | –
2 | O=C(Nc1cnn(C2CNC2)c1)c1cc(C(=O)c2c(Cl)ccc(Cl)c2F)c[nH]1 [Example 54, N-(1-(Azetidin-3-yl)-1H-pyrazol-4-yl)-4-(3,6-dichloro-2-fluorobenzoyl)-1H-pyrrole-2-carboxamide] | 140 | 31.7 | – | – | – | –
3 | COc1ccc(Cl)c(C(=O)c2c[nH]c(C(=O)NC3CCN(C)CC3)c2)c1F [Example 70, 4-(6-chloro-2-fluoro-3-methoxybenzoyl)-N-(1-methylpiperidin-4-yl)-1H-pyrrole-2-carboxamide] | 1700 | 57.9 | – | – | 477 | –
4 | COc1ccc(Cl)c(C(=O)c2c[nH]c(C(=O)Nc3cccnc3)c2)c1F [Example 72, 4-(6-chloro-2-fluoro-3-methoxybenzoyl)-N-(pyridin-3-yl)-1H-pyrrole-2-carboxamide] | 1900 | 90.8 | – | – | 2980 | –
5 | CN(c1ccc(NC(=O)c2cc(C(=O)c3c(Cl)ccc(Cl)c3F)c[nH]2)cn1)C1CCNCC1 [Example 107, 4-(3,6-Dichloro-2-fluorobenzoyl)-N-(6-(methyl(piperidin-4-yl)amino)pyridin-3-yl)-1H-pyrrole-2-carboxamide] | 450 | 24.6 | – | – | – | –
6 | O=C(Nc1cccnc1)c1cc(C(=O)c2c(Cl)ccc(Cl)c2F)c[nH]1 [Example 172, 4-(3,6-Dichloro-2-fluorobenzoyl)-N-(pyridin-3-yl)-1H-pyrrole-2-carboxamide] | 190 | 65.6 | – | – | 598 | –
7 | O=C(Nc1ccc(NCCN2CCOCC2)nc1)c1cc(C(=O)c2c(Cl)ccc(Cl)c2F)c[nH]1 [Example 276, 4-(3,6-Dichloro-2-fluorobenzoyl)-N-(6-((2-morpholinoethyl)amino)pyridin-3-yl)-1H-pyrrole-2-carboxamide] | – | 58.1 | – | – | – | 125
8 | COCCN(C)Cc1ccc(NC(=O)c2cc(C(=O)c3c(Cl)ccc(Cl)c3F)c[nH]2)cn1 [Example 278] | – | 34 | – | – | – | 40
9 | Cn1cc(NC(=O)c2cc(C(=O)c3c(F)cccc3F)c[nH]2)cn1 [Example 285, 4-(2,6-Difluorobenzoyl)-N-(1-methyl-1H-pyrazol-4-yl)-1H-pyrrole-2-carboxamide] | – | – | 671 | 1560 ± 50 | – | –
10 | Cc1cccc(F)c1C(=O)c1c[nH]c(C(=O)Nc2cnn(C)c2)c1 [Example 286, 4-(2-Fluoro-6-methylbenzoyl)-N-(1-methyl-1H-pyrazol-4-yl)-1H-pyrrole-2-carboxamide] | – | – | 2480 | 7070 ± 20 | – | –
11 | Cn1cc(NC(=O)c2cc(C(=O)c3ccccc3F)c[nH]2)cn1 [Example 287, 4-(2-Fluorobenzoyl)-N-(1-methyl-1H-pyrazol-4-yl)-1H-pyrrole-2-carboxamide] | – | – | 3200 | 7550 ± 300 | – | –

Continued by falling IC50 [2, 6], values first:

Row | IC50 [1] [nM] | IC50 [2, 6] [nM] | IC50 [5] [nM] | IC50 [2, 7] [nM] | Compound | IC50 [3] [nM] | IC50 [4] [nM]
12 | – | 22 | – | – | CN(C)Cc1ccc(NC(=O)c2cc(C(=O)c3c(Cl)ccc(Cl)c3F)c[nH]2)cn1 [Example 277, 4-(3,6-Dichloro-2-fluorobenzoyl)-N-(6-((dimethylamino)methyl)pyridin-3-yl)-1H-pyrrole-2-carboxamide] | – | 36
13 | 490 | 19.3 | – | – | CCN(CC)CCNc1ncc(NC(=O)c2cc(C(=O)c3c(Cl)ccc(Cl)c3F)c[nH]2)cn1 [Example 100, 4-(3,6-Dichloro-2-fluorobenzoyl)-N-(2-((2-(diethylamino)ethyl)amino)pyrimidin-5-yl)-1H-pyrrole-2-carboxamide] | – | 151
14 | 700 | 15.7 | – | – | COc1ccc(Cl)c(C(=O)c2c[nH]c(C(=O)Nc3ccc(N4CCNCC4)nc3)c2)c1F [Example 69, 4-(6-Chloro-2-fluoro-3-methoxybenzoyl)-N-(6-(piperazin-1-yl)pyridin-3-yl)-1H-pyrrole-2-carboxamide] | – | –
15 | – | 11.1 | – | – | O=C(Nc1ccc(NCCN2CCCCC2)nc1)c1cc(C(=O)c2c(Cl)ccc(Cl)c2F)c[nH]1 [Example 264, 4-(3,6-Dichloro-2-fluorobenzoyl)-N-(6-((2-(piperidin-1-yl)ethyl)amino)pyridin-3-yl)-1H-pyrrole-2-carboxamide] | – | 142
16 | 50 | 10.8 | – | – | O=C(Nc1ccc(OC2CCNCC2)nc1)c1cc(C(=O)c2c(Cl)ccc(Cl)c2F)c[nH]1 [Example 109, 4-(3,6-Dichloro-2-fluorobenzoyl)-N-(6-(piperidin-4-yloxy)pyridin-3-yl)-1H-pyrrole-2-carboxamide] | – | 92
17 | – | 9 | – | – | O=C(Nc1ccc(CN2CCCCC2)nc1)c1cc(C(=O)c2c(Cl)ccc(Cl)c2F)c[nH]1 [Example 284, 4-(3,6-Dichloro-2-fluorobenzoyl)-N-(6-(piperidin-1-ylmethyl)pyridin-3-yl)-1H-pyrrole-2-carboxamide] | – | 13
18 | – | 7.1 | – | – | O=C(Nc1ccc(NCCN2CCCC2)nc1)c1cc(C(=O)c2c(Cl)ccc(Cl)c2F)c[nH]1 [Example 275, 4-(3,6-Dichloro-2-fluorobenzoyl)-N-(6-((2-(pyrrolidin-1-yl)ethyl)amino)pyridin-3-yl)-1H-pyrrole-2-carboxamide] | – | 107
19 | – | 6.7 | – | – | O=C(Nc1ccc(CN2CCC(O)CC2)nc1)c1cc(C(=O)c2c(Cl)ccc(Cl)c2F)c[nH]1 [Example 282] | – | 44
20 | 290 | 5.1 | – | – | O=C(Nc1ccc(CC2CCNCC2)nc1)c1cc(C(=O)c2c(Cl)ccc(Cl)c2F)c[nH]1 [Example 111, 4-(3,6-Dichloro-2-fluorobenzoyl)-N-(6-(piperidin-4-ylmethyl)pyridin-3-yl)-1H-pyrrole-2-carboxamide] | – | –
